Measured values published in US4005132A, “Process for reacting trialkyl boranes with compounds containing protons” (Studiengesellschaft Kohle m.b.H., priority 1971, dated 1977).

Assays:
[1] = Solubility of diethylborylated sugars and polysaccharides; format: physicochemical
[2] = Thermal stability (vacuum distillation / decomposition on heating); format: physicochemical

Row | Compound | solubility in hydrocarbons [1] | stability on vacuum distillation [2] | solubility in aliphatic and aromatic hydrocarbons and in carbon tetrachloride ([1]; aliphatic and aromatic hydrocarbons and carbon tetrachloride) | Decomposition of the compound begins at ([2]; with evolution of triethyl borane) [°C] | stability on distillation under high vacuum ([2]; high vacuum, 136° C.)
1 | CCB(CC)OC[C@H]1O[C@H](OC)[C@H](OB(CC)CC)[C@@H](OB(CC)CC)[C@@H]1OB(CC)CC [2,3,4,6-tetrakis(diethylboryl)-α-methyl-D-(+)-glucoside] | very readily soluble | without decomposition | – | – | –
2 | CCB(CC)OC[C@H](OB(CC)CC)[C@H]1OC(=O)C(OB(CC)CC)=C1OB(CC)CC [2.3.5.6-Tetrakis-diethylboryl-L(+)-ascorbic acid] | very readily soluble | without decomposition | – | – | –
3 | CCB(CC)OC[C@H]1O[C@@H]2O[C@H]3[C@H](OB(CC)CC)[C@@H](OB(CC)CC)[C@@H](O[C@H]4[C@H](OB(CC)CC)[C@@H](OB(CC)CC)[C@@H](O[C@H]5[C@H](OB(CC)CC)[C@@H](OB(CC)CC)[C@@H](O[C@H]6[C@H](OB(CC)CC)[C@@H](OB(CC)CC)[C@@H](O[C@H]7[C@H](OB(CC)CC)[C@@H](OB(CC)CC)[C@@H](O[C@H]8[C@H](OB(CC)CC)[C@@H](OB(CC)CC)[C@@H](O[C@H]1[C@H](OB(CC)CC)[C@H]2OB(CC)CC)O[C@@H]8COB(CC)CC)O[C@@H]7COB(CC)CC)O[C@@H]6COB(CC)CC)O[C@@H]5COB(CC)CC)O[C@@H]4COB(CC)CC)O[C@@H]3COB(CC)CC [(I), Per-O-diethylboryl-cyclohepta-amylose] | – | – | soluble | 141 | –
4 | CCB(CC)OC[C@H]1OC(OB(CC)CC)[C@H](OB(CC)CC)[C@@H](OB(CC)CC)[C@@H]1OB(CC)CC (single isomer, unassigned) [1,2,3,4,5-Pentakis-diethyl-boryl-D(+)-glucose] | very readily soluble | without decomposition | – | – | without decomposition
